Test: Spreading ability of solvents, drop on Standard No. 1 filter paper
Type: physicochemical
Settings: for Drop Diameter After Set period of time 0(h) / Drop Diameter After Set period of time 0.5(h) / Drop Diameter After Set period of time 1(h) / Drop Diameter After Set period of time 8(h): average of 3 trials
Experimental: The spreading ability of various solvents was measured. Solvents including an antimicrobial agent, as well as solvents without an antimicrobial agent, were tested. Benzalkonium chloride was used as an antimicrobial agent. Spreading ability was measured by dropping one drop of liquid onto Standard No. 1 filter paper, and measuring the diameter of each drop at various time periods. The results are shown below in table 3, and reflect the average results obtained after 3 trials for each sample.

% Increase in drop diameter after 8 h (antimicrobial agent 0 wt %) [%] | Drop Diameter After Set period of time 0(h) (antimicrobial agent 0 wt %) | Drop Diameter After Set period of time 0.5(h) (antimicrobial agent 0 wt %) | Drop Diameter After Set period of time 1(h) (antimicrobial agent 0 wt %) | Drop Diameter After Set period of time 8(h) (antimicrobial agent 0 wt %) | % Increase in drop diameter after 8 h (benzalkonium chloride 3.2 wt %) [%] | Drop Diameter After Set period of time 0(h) (benzalkonium chloride 3.2 wt %) | Drop Diameter After Set period of time 0.5(h) (benzalkonium chloride 3.2 wt %) | Drop Diameter After Set period of time 1(h) (benzalkonium chloride 3.2 wt %) | Drop Diameter After Set period of time 8(h) (benzalkonium chloride 3.2 wt %) | SMILES
357 | 7.0 | 22.3 | 23.6 | 32.0 | 632 | 4.0 | 22.6 | 24.0 | 29.3 | OCC(O)CO [Glycerin 99%, Glycerin]
120 | 10.0 | 28.0 | 29.0 | 22.0 | 100 | 12.3 | 28.0 | 29.0 | 24.6 | CC(O)CO (stereo not drawn) [Propylene Glycol]

SMILES | % Increase in drop diameter after 8 h (antimicrobial agent 0 wt %) [%] | Drop Diameter After Set period of time 0(h) (antimicrobial agent 0 wt %) | Drop Diameter After Set period of time 0.5(h) (antimicrobial agent 0 wt %) | Drop Diameter After Set period of time 1(h) (antimicrobial agent 0 wt %) | Drop Diameter After Set period of time 8(h) (antimicrobial agent 0 wt %) | % Increase in drop diameter after 8 h (benzalkonium chloride 3.2 wt %) [%] | Drop Diameter After Set period of time 0(h) (benzalkonium chloride 3.2 wt %) | Drop Diameter After Set period of time 0.5(h) (benzalkonium chloride 3.2 wt %) | Drop Diameter After Set period of time 1(h) (benzalkonium chloride 3.2 wt %) | Drop Diameter After Set period of time 8(h) (benzalkonium chloride 3.2 wt %)
OCCCO [Propanediol (Zemea ™), Propanediol] | 263 | 10.6 | 32 | 33.5 | 38.5 | 249 | 10.6 | 30.3 | 32.3 | 37.0
